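Briefly, cells in 96-well plates were exposed to five compound concentrations for 48 h, and endpoints were estimated by linear interpolation. Definition used: TGI = concentration required for complete inhibition of growth.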
Key:
Assay in all cases: NCI tumour cell line growth inhibition, 48 h
SK-MEL-28 melanoma = test system: SK-MEL-28 melanoma
NCI-H522 lung = test system: NCI-H522 lung
K-562 leukemia = test system: K-562 leukemia
ACHN renal = test system: ACHN renal
SK-MEL-5 melanoma = test system: SK-MEL-5 melanoma
HCT-116 colon = test system: HCT-116 colon
MDA-N = test system: MDA-N
MDA-MB-231 breast = test system: MDA-MB-231 breast
HCT-15 colon = test system: HCT-15 colon
M14 melanoma = test system: M14 melanoma
U251 CNS = test system: U251 CNS
HT29 colon = test system: HT29 colon
SW-620 colon = test system: SW-620 colon
OVCAR-5 ovarian = test system: OVCAR-5 ovarian
RPMI-8226 leukemia = test system: RPMI-8226 leukemia
SN12C renal = test system: SN12C renal
LOX IMVI melanoma = test system: LOX IMVI melanoma
T-47D breast = test system: T-47D breast
SR leukemia = test system: SR leukemia
EKVX NSCLC = test system: EKVX NSCLC
SNB-19 CNS = test system: SNB-19 CNS
HOP-62 NSCLC = test system: HOP-62 NSCLC
SK-MEL-2 melanoma = test system: SK-MEL-2 melanoma
SF-539 CNS = test system: SF-539 CNS
UO-31 renal = test system: UO-31 renal
OVCAR-8 ovarian = test system: OVCAR-8 ovarian
NCI-H23 lung = test system: NCI-H23 lung
NCI-H226 lung = test system: NCI-H226 lung
MDA-MB-435 = test system: MDA-MB-435
OVCAR-4 ovarian = test system: OVCAR-4 ovarian
SNB-75 CNS = test system: SNB-75 CNS
HCC-2998 colon = test system: HCC-2998 colon
CAKI-1 renal = test system: CAKI-1 renal
NCI/ADR-RES ovarian = test system: NCI/ADR-RES ovarian
IGROV1 ovarian = test system: IGROV1 ovarian
UACC-62 melanoma = test system: UACC-62 melanoma
OVCAR-3 ovarian = test system: OVCAR-3 ovarian
PC-3 prostate = test system: PC-3 prostate
COLO 205 colon = test system: COLO 205 colon
HL-60(TB) leukemia = test system: HL-60(TB) leukemia
MCF7 breast = test system: MCF7 breast
KM12 colon = test system: KM12 colon
TK-10 renal = test system: TK-10 renal
DU-145 prostate = test system: DU-145 prostate
MALME-3M melanoma = test system: MALME-3M melanoma
786-0 renal = test system: 786-0 renal
A549 NSCLC = test system: A549 NSCLC
MOLT-4 leukemia = test system: MOLT-4 leukemia
SF-295 CNS = test system: SF-295 CNS
UACC-257 melanoma = test system: UACC-257 melanoma
BT-549 breast = test system: BT-549 breast
CCRF-CEM leukemia = test system: CCRF-CEM leukemia
SK-OV-3 ovarian = test system: SK-OV-3 ovarian
HS 578T breast = test system: HS 578T breast
SF-268 CNS = test system: SF-268 CNS
HOP-92 NSCLC = test system: HOP-92 NSCLC
RXF 393 renal = test system: RXF 393 renal

With `COC1CC(OC2C(C)OC(OC3C(C)OC(OC4C(C)OC(O[C@H]5CC[C@@]6(C)C(=CC[C@]7(O)[C@@H]6C[C@@H](OC(=O)/C=C/c6ccccc6)[C@@]6(C)[C@]7(O)CC[C@@]6(O)C(C)=O)C5)CC4OC)CC3OC)CC2OC)OC(C)C1O` (some centres undefined) the TGI (SK-MEL-28 melanoma) was greater than 12.5 µM, the TGI (NCI-H522 lung) was greater than 12.5 µM and the TGI (K-562 leukemia) was greater than 12.5 µM. For the same molecule, the TGI (ACHN renal) was greater than 12.5 µM, the TGI (SK-MEL-5 melanoma) was greater than 12.5 µM and the TGI (HCT-116 colon) was greater than 12.5 µM. The TGI (MDA-N) was greater than 12.5 µM, the TGI (MDA-MB-231 breast) was greater than 12.5 µM and the TGI (HCT-15 colon) was greater than 12.5 µM. For the same molecule, the TGI (M14 melanoma) was greater than 12.5 µM, the TGI (U251 CNS) was greater than 12.5 µM and the TGI (HT29 colon) was greater than 12.5 µM. It also gave a TGI (SW-620 colon) greater than 12.5 µM, a TGI (OVCAR-5 ovarian) greater than 12.5 µM and a TGI (RPMI-8226 leukemia) greater than 12.5 µM. For the same molecule, the TGI (SN12C renal) was greater than 12.5 µM, the TGI (LOX IMVI melanoma) was greater than 12.5 µM and the TGI (T-47D breast) was greater than 12.5 µM. It also gave a TGI (SR leukemia) greater than 12.5 µM, a TGI (EKVX NSCLC) greater than 12.5 µM and a TGI (SNB-19 CNS) greater than 12.5 µM. The TGI (HOP-62 NSCLC) was greater than 12.5 µM, the TGI (SK-MEL-2 melanoma) was greater than 12.5 µM and the TGI (SF-539 CNS) was greater than 12.5 µM. For the same molecule, the TGI (UO-31 renal) was greater than 12.5 µM, the TGI (OVCAR-8 ovarian) was greater than 12.5 µM and the TGI (NCI-H23 lung) was greater than 12.5 µM. For the same molecule, the TGI (NCI-H226 lung) was greater than 12.5 µM, the TGI (MDA-MB-435) was greater than 12.5 µM and the TGI (OVCAR-4 ovarian) was greater than 12.5 µM. The TGI (SNB-75 CNS) was greater than 12.5 µM, the TGI (HCC-2998 colon) was greater than 12.5 µM and the TGI (CAKI-1 renal) was greater than 12.5 µM. The TGI (NCI/ADR-RES ovarian) was greater than 12.5 µM, the TGI (IGROV1 ovarian) was greater than 12.5 µM and the TGI (UACC-62 melanoma) was greater than 12.5 µM. For the same molecule, the TGI (OVCAR-3 ovarian) was greater than 12.5 µM, the TGI (PC-3 prostate) was greater than 12.5 µM and the TGI (COLO 205 colon) was greater than 12.5 µM. For the same molecule, the TGI (HL-60(TB) leukemia) was greater than 12.5 µM, the TGI (MCF7 breast) was greater than 12.5 µM and the TGI (KM12 colon) was greater than 12.5 µM. The TGI (TK-10 renal) was greater than 12.5 µM, the TGI (DU-145 prostate) was greater than 12.5 µM and the TGI (MALME-3M melanoma) was greater than 12.5 µM. For the same molecule, the TGI (786-0 renal) was greater than 12.5 µM, the TGI (A549 NSCLC) was greater than 12.5 µM and the TGI (MOLT-4 leukemia) was greater than 12.5 µM. It also gave a TGI (SF-295 CNS) greater than 12.5 µM, a TGI (UACC-257 melanoma) greater than 12.5 µM and a TGI (BT-549 breast) greater than 12.5 µM. The TGI (CCRF-CEM leukemia) was greater than 12.5 µM, the TGI (SK-OV-3 ovarian) was greater than 12.5 µM and the TGI (HS 578T breast) was greater than 12.5 µM. The TGI (SF-268 CNS) was greater than 12.5 µM and the TGI (HOP-92 NSCLC) was greater than 12.5 µM.
Work on `CN=C(NN)NS(=O)(=O)c1cc(C)c(Cl)cc1S` yielded a TGI (SK-MEL-28 melanoma) greater than 100 µM, a TGI (NCI-H522 lung) of 97.7 µM and a TGI (K-562 leukemia) greater than 100 µM. The TGI (SK-MEL-5 melanoma) was greater than 100 µM, the TGI (HCT-116 colon) was greater than 100 µM and the TGI (MDA-N) was greater than 100 µM. For the same molecule, the TGI (MDA-MB-231 breast) was greater than 100 µM, the TGI (HCT-15 colon) was greater than 100 µM and the TGI (M14 melanoma) was greater than 100 µM. For the same molecule, the TGI (U251 CNS) was greater than 100 µM, the TGI (HT29 colon) was greater than 100 µM and the TGI (SW-620 colon) was greater than 100 µM. For the same molecule, the TGI (OVCAR-5 ovarian) was greater than 100 µM, the TGI (RPMI-8226 leukemia) was greater than 100 µM and the TGI (SN12C renal) was greater than 100 µM. The TGI (LOX IMVI melanoma) was greater than 100 µM, the TGI (T-47D breast) was greater than 100 µM and the TGI (SR leukemia) was greater than 100 µM. The TGI (EKVX NSCLC) was greater than 100 µM, the TGI (SNB-19 CNS) was greater than 100 µM and the TGI (HOP-62 NSCLC) was greater than 100 µM. The TGI (SK-MEL-2 melanoma) was greater than 100 µM, the TGI (SF-539 CNS) was greater than 100 µM and the TGI (UO-31 renal) was 74.7 µM. For the same molecule, the TGI (OVCAR-8 ovarian) was greater than 100 µM, the TGI (NCI-H226 lung) was greater than 100 µM and the TGI (MDA-MB-435) was greater than 100 µM. It also gave a TGI (OVCAR-4 ovarian) greater than 100 µM, a TGI (SNB-75 CNS) greater than 100 µM and a TGI (HCC-2998 colon) greater than 100 µM. For the same molecule, the TGI (CAKI-1 renal) was greater than 100 µM, the TGI (NCI/ADR-RES ovarian) was greater than 100 µM and the TGI (RXF 393 renal) was greater than 100 µM. The TGI (IGROV1 ovarian) was greater than 100 µM, the TGI (UACC-62 melanoma) was greater than 100 µM and the TGI (OVCAR-3 ovarian) was greater than 100 µM. The TGI (PC-3 prostate) was greater than 100 µM, the TGI (COLO 205 colon) was greater than 100 µM and the TGI (HL-60(TB) leukemia) was greater than 100 µM. The TGI (MCF7 breast) was greater than 100 µM, the TGI (KM12 colon) was greater than 100 µM and the TGI (TK-10 renal) was greater than 100 µM. For the same molecule, the TGI (DU-145 prostate) was greater than 100 µM, the TGI (MALME-3M melanoma) was greater than 100 µM and the TGI (786-0 renal) was greater than 100 µM. The TGI (A549 NSCLC) was greater than 100 µM, the TGI (UACC-257 melanoma) was greater than 100 µM and the TGI (BT-549 breast) was greater than 100 µM. The TGI (CCRF-CEM leukemia) was greater than 100 µM, the TGI (SK-OV-3 ovarian) was greater than 100 µM and the TGI (HS 578T breast) was 75.3 µM. It also gave a TGI (SF-268 CNS) greater than 100 µM and a TGI (HOP-92 NSCLC) greater than 100 µM.
